Counter-ions that a name gives are not always drawn. Like-named read-outs stand apart in the source and are kept apart here.
Target: T1, human TRPV4 (Homo sapiens, UniProt Q9HBA0)
T1 construct: expressed in transfected cells; host or cells: BHK/AC9 cells transduced with BacMam virus
Assay: FLIPR assay for hTRPV4 expressed in BHK cells: inhibition of Agonist Compound-induced calcium signal
Assay type: cell-based
Details: FLIPR calcium signal, agonist at EC80, reported as range class
In short: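 Calcium influx through TRPV4 tracked by Fluo-4 fluorescence on FLIPR. Cells: BHK/AC9 transduced with BacMam-hTRPV4 at MOI 78, 24 h culture post-plating (15,000 cells/well). Dye loading: 2 μM Fluo-4 AM with 500 μM Brilliant Black quencher, 1-1.5 h, room temperature, dark.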

[1] = hTRPV4 in BHK/AC9 cells, read-out: IC50

T1 sequence (Q9HBA0 whole entry): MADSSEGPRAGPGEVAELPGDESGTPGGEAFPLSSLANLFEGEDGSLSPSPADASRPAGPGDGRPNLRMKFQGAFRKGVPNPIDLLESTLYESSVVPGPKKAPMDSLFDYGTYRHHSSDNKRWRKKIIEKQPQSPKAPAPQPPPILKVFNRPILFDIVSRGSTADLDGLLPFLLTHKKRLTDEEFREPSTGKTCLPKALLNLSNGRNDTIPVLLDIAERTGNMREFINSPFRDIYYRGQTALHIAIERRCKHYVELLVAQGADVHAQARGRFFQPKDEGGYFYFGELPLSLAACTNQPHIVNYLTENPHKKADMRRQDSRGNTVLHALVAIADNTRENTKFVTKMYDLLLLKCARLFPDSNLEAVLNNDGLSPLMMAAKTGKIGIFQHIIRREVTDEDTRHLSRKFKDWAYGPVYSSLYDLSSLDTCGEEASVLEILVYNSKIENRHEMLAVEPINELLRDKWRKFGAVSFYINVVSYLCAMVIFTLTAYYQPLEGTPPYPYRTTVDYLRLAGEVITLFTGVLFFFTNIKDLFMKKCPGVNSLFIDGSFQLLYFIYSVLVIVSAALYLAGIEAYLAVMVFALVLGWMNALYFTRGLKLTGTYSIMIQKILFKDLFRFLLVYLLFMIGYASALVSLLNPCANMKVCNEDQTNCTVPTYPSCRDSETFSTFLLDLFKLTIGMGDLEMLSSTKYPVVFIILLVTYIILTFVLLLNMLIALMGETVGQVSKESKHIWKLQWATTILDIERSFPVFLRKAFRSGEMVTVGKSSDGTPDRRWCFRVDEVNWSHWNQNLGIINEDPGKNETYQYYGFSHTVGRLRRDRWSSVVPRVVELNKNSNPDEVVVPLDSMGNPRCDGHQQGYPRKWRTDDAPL

IC50 [1] [nM] | Compound | IC50 (IC50, hTRPV4 in BHK/AC9 cells) [nM]
0.1 to 10 | C[C@H](O)[C@]1(O)CN(S(=O)(=O)c2ccc(C#N)cc2Cl)C[C@@H]1Oc1ccc(C#N)c(F)c1 [Example 205, 4-(((3S,4R)-1-((2-chloro-4-cyanophenyl)sulfonyl)-4-hydroxy-4-((S)-1-hydroxyethyl)pyrrolidin-3-yl)oxy)-2-fluorobenzonitrile] | 
10 to 100 | C[C@@H](O)[C@]1(O)CN(S(=O)(=O)c2ccc(C(F)(F)F)nc2)C[C@@H]1Oc1ccc(C#N)c(F)c1 [Example 206, 2-fluoro-4-(((3S,4R)-4-hydroxy-4-((R)-1-hydroxyethyl)-1-((6-(trifluoromethyl)pyridin-3-yl)sulfonyl)pyrrolidin-3-yl)oxy)benzonitrile] | 
10 to 100 | C[C@@H](O)[C@]1(O)CN(S(=O)(=O)c2ccc(F)cn2)C[C@@H]1Oc1ccc(C#N)c(F)c1 [Example 207, 2-fluoro-4-(((3S,4R)-1-((5-fluoropyridin-2-yl)sulfonyl)-4-hydroxy-4-((R)-1-hydroxyethyl)pyrrolidin-3-yl)oxy)benzonitrile] | 
10 to 100 | C[C@@H](O)[C@]1(O)CN(S(=O)(=O)c2ccc(OC(F)(F)F)nc2)C[C@@H]1Oc1ccc(C#N)c(F)c1 [Example 208, 2-fluoro-4-(((3S,4R)-4-hydroxy-4-((R)-1-hydroxyethyl)-1-((6-(trifluoromethoxy)pyridin-3-yl)sulfonyl)pyrrolidin-3-yl)oxy)benzonitrile] | 
0.1 to 10 | C[C@@H](O)[C@]1(O)CN(S(=O)(=O)c2ccc(I)cc2)C[C@@H]1Oc1ccc(C#N)c(F)c1 [Example 209, 2-fluoro-4-(((3S,4R)-4-hydroxy-4-((R)-1-hydroxyethyl)-1-((4-iodophenyl)sulfonyl)pyrrolidin-3-yl)oxy)benzonitrile] | 
10 to 100 | C[C@@H](O)[C@]1(O)CN(S(=O)(=O)c2ccc(OC(F)(F)F)cn2)C[C@@H]1Oc1ccc(C#N)c(F)c1 [Example 210, 2-fluoro-4-(((3S,4R)-4-hydroxy-4-((R)-1-hydroxyethyl)-1-((5-(trifluoromethoxy)pyridin-2-yl)sulfonyl)pyrrolidin-3-yl)oxy)benzonitrile] | 
10 to 100 | C[C@@H](O)[C@]1(O)CN(S(=O)(=O)c2ccc(C(F)F)cn2)C[C@@H]1Oc1ccc(C#N)c(F)c1 [Example 211, 4-(((3S,4R)-1-((5-(difluoromethyl)pyridin-2-yl)sulfonyl)-4-hydroxy-4-((R)-1-hydroxyethyl)pyrrolidin-3-yl)oxy)-2-fluorobenzonitrile] | 
10 to 100 | C[C@@H](O)[C@]1(O)CN(S(=O)(=O)c2ccc(C(F)F)nc2)C[C@@H]1Oc1ccc(C#N)c(F)c1 [Example 212, 4-(((3S,4R)-1-((6-(difluoromethyl)pyridin-3-yl)sulfonyl)-4-hydroxy-4-((R)-1-hydroxyethyl)pyrrolidin-3-yl)oxy)-2-fluorobenzonitrile] | 
10 to 100 | C[C@@H](O)[C@]1(O)CN(S(=O)(=O)c2ccc(OC(F)F)nc2)C[C@@H]1Oc1ccc(C#N)c(F)c1 [Example 213, 4-(((3S,4R)-1-((6-(difluoromethoxy)pyridin-3-yl)sulfonyl)-4-hydroxy-4-((R)-1-hydroxyethyl)pyrrolidin-3-yl)oxy)-2-fluorobenzonitrile] | 
10 to 100 | CC(C)(O)[C@]1(O)CN(S(=O)(=O)c2ccc(Cl)cn2)C[C@@H]1Oc1ccc(C#N)c(F)c1 [Example 214, 4-(((3S,4S)-1-((5-chloropyridin-2-yl)sulfonyl)-4-hydroxy-4-(2-hydroxypropan-2-yl)pyrrolidin-3-yl)oxy)-2-fluorobenzonitrile] | 
10 to 100 | N#Cc1cc(OCC(F)(F)F)c(O[C@H]2CN(S(=O)(=O)c3ccc(Cl)cn3)C[C@]2(O)CO)cc1F [Example 215, 4-(((3S,4S)-1-((5-chloropyridin-2-yl)sulfonyl)-4-hydroxy-4-(hydroxymethyl)pyrrolidin-3-yl)oxy)-2-fluoro-5-(2,2,2-trifluoroethoxy)benzonitrile] | 
0.1 to 10 | Cc1ccc(S(=O)(=O)N2C[C@H](Oc3ccc(C#N)c(F)c3)[C@](O)(CO)C2)c(C#N)c1 [Example 216, 4-(((3S,4R)-1-((2-cyano-4-methylphenyl)sulfonyl)-4-hydroxy-4-(hydroxymethyl)pyrrolidin-3-yl)oxy)-2-fluorobenzonitrile] | 
0.1 to 10 | CCc1ccc(S(=O)(=O)N2C[C@H](Oc3ccc(C#N)c(F)c3)[C@](O)(CO)C2)c(C#N)c1 [Example 217, 4-(((3S,4R)-1-((2-cyano-4-ethylphenyl)sulfonyl)-4-hydroxy-4-(hydroxymethyl)pyrrolidin-3-yl)oxy)-2-fluorobenzonitrile] | 
10 to 100 | N#Cc1ccc(O[C@H]2CN(S(=O)(=O)c3ccc(-c4ccccc4)cc3C#N)C[C@@]2(O)CO)cc1F [Example 218, 4-(((3R,4S)-4-(4-cyano-3-fluorophenoxy)-3-hydroxy-3-(hydroxymethyl)pyrrolidin-1-yl)sulfonyl)-[1,1′-biphenyl]-3-carbonitrile] | 
0.1 to 10 | CC#Cc1ccc(S(=O)(=O)N2C[C@H](Oc3ccc(C#N)c(F)c3)[C@](O)(CO)C2)c(C#N)c1 [Example 219, 4-(((3S,4R)-1-((2-cyano-4-(prop-1-yn-1-yl)phenyl)sulfonyl)-4-hydroxy-4-(hydroxymethyl)pyrrolidin-3-yl)oxy)-2-fluorobenzonitrile] | 
0.1 to 10 | C#Cc1ccc(S(=O)(=O)N2C[C@H](Oc3ccc(C#N)c(F)c3)[C@](O)(CO)C2)c(C#N)c1 [Example 220, 4-(((3S,4R)-1-((2-cyano-4-ethynylphenyl)sulfonyl)-4-hydroxy-4-(hydroxymethyl)pyrrolidin-3-yl)oxy)-2-fluorobenzonitrile] | 
 | C[Si](C)(C)C#Cc1ccc(S(=O)(=O)N2C[C@H](Oc3ccc(C#N)c(F)c3)[C@](O)(CO)C2)c(C#N)c1 [Example 221, 4-(((3S,4R)-1-((2-cyano-4-((trimethylsilyl)ethynyl)phenyl)sulfonyl)-4-hydroxy-4-(hydroxymethyl)pyrrolidin-3-yl)oxy)-2-fluorobenzonitrile] | 0.1 to 10
0.1 to 10 | CC#Cc1ccc(S(=O)(=O)N2C[C@H](Oc3ccc(C#N)c(F)c3)[C@](O)(CO)C2)cc1 [Example 222, 2-fluoro-4-(((3S,4R)-4-hydroxy-4-(hydroxymethyl)-1-((4-(prop-1-yn-1-yl)phenyl)sulfonyl)pyrrolidin-3-yl)oxy)benzonitrile] | 
10 to 100 | CC#Cc1ccc(S(=O)(=O)N2C[C@H](Oc3ccc(C#N)c(F)c3)[C@](O)(CO)C2)cn1 [Example 223, 2-fluoro-4-(((3S,4R)-4-hydroxy-4-(hydroxymethyl)-1-((6-(prop-1-yn-1-yl)pyridin-3-yl)sulfonyl)pyrrolidin-3-yl)oxy)benzonitrile] | 
10 to 100 | CC#Cc1cc(C#N)ccc1S(=O)(=O)N1C[C@H](Oc2ccc(C#N)c(F)c2)[C@](O)(CO)C1 [Example 224, 4-(((3S,4R)-1-((4-cyano-2-(prop-1-yn-1-yl)phenyl)sulfonyl)-4-hydroxy-4-(hydroxymethyl)pyrrolidin-3-yl)oxy)-2-fluorobenzonitrile] | 
0.1 to 10 | C#Cc1cc(C(F)(F)F)ccc1S(=O)(=O)N1C[C@H](Oc2ccc(C#N)c(F)c2)[C@](O)(CO)C1 [Example 225, 4-(((3S,4R)-1-((2-ethynyl-4-(trifluoromethyl)phenyl)sulfonyl)-4-hydroxy-4-(hydroxymethyl)pyrrolidin-3-yl)oxy)-2-fluorobenzonitrile] | 
10 to 100 | N#Cc1ccc(O[C@H]2CN(S(=O)(=O)c3ccc(C#CC4CC4)nc3)C[C@@]2(O)CO)cc1F [Example 226, 4-(((3S,4R)-1-((6-(cyclopropylethynyl)pyridin-3-yl)sulfonyl)-4-hydroxy-4-(hydroxymethyl)pyrrolidin-3-yl)oxy)-2-fluorobenzonitrile] | 
0.1 to 10 | CC#Cc1ccc(S(=O)(=O)N2C[C@H](Oc3ccc(C#N)c(F)c3)[C@](O)(CO)C2)nc1 [Example 227, 2-fluoro-4-(((3S,4R)-4-hydroxy-4-(hydroxymethyl)-1-((5-(prop-1-yn-1-yl)pyridin-2-yl)sulfonyl)pyrrolidin-3-yl)oxy)benzonitrile] | 
10 to 100 | C#Cc1ccc(S(=O)(=O)N2C[C@H](Oc3ccc(C#N)c(F)c3)[C@](O)(CO)C2)nc1 [Example 228, 4-(((3S,4R)-1-((5-ethynylpyridin-2-yl)sulfonyl)-4-hydroxy-4-(hydroxymethyl)pyrrolidin-3-yl)oxy)-2-fluorobenzonitrile] | 
10 to 100 | CC(C)(C)C#Cc1ccc(S(=O)(=O)N2C[C@H](Oc3ccc(C#N)c(F)c3)[C@](O)(CO)C2)nc1 [Example 229, 4-(((3S,4R)-1-((5-(3,3-dimethylbut-1-yn-1-yl)pyridin-2-yl)sulfonyl)-4-hydroxy-4-(hydroxymethyl)pyrrolidin-3-yl)oxy)-2-fluorobenzonitrile] | 
0.1 to 10 | N#Cc1ccc(O[C@H]2CN(S(=O)(=O)c3ccc(C#Cc4ccccc4)cn3)C[C@@]2(O)CO)cc1F [Example 230, 2-fluoro-4-(((3S,4R)-4-hydroxy-4-(hydroxymethyl)-1-((5-(phenylethynyl)pyridin-2-yl)sulfonyl)pyrrolidin-3-yl)oxy)benzonitrile] | 
10 to 100 | N#Cc1ccc(S(=O)(=O)N2C[C@H](Oc3ccc(C#N)c(F)c3)[C@](O)(CO)C2)nc1 [Example 231, 6-(((3R,4S)-4-(4-cyano-3-fluorophenoxy)-3-hydroxy-3-(hydroxymethyl)pyrrolidin-1-yl)sulfonyl)nicotinonitrile] | 
10 to 100 | N#Cc1ccc(O[C@H]2CN(S(=O)(=O)c3ccc(Cl)cn3)C[C@@]2(O)CN)cc1F [Example 233, 4-(((3S,4S)-4-(aminomethyl)-1-((5-chloropyridin-2-yl)sulfonyl)-4-hydroxypyrrolidin-3-yl)oxy)-2-fluorobenzonitrile, Hydrochloride] | 
10 to 100 | N#Cc1ccc(O[C@H]2CN(S(=O)(=O)c3ccc(Cl)cn3)C[C@]2(O)CN)cc1F [Example 234, 4-(((3S,4R)-4-(aminomethyl)-1-((5-chloropyridin-2-yl)sulfonyl)-4-hydroxypyrrolidin-3-yl)oxy)-2-fluorobenzonitrile, Hydrochloride] | 
